In patent publication US7781565B2 (priority 2006, dated 2010):
Entries after “also recorded” stand apart in the source; their conditions may differ.

Each substance was assayed on NCI-60 cell lines.
Assay type: cell-based, human
FGVSQVH was tested, and the “Cell Line the peptide is associated with (peptide recovered from phage library selection on this NCI-60 cell line)” value was “CAIK-1 Renal”. With FHFGGSG the “Cell Line (NCI-60 cell line the peptide and its motif are associated with)” value was “OVCAR-5 Ovarian”. In the case of FHIWGGR, the “Cell Line the peptide is associated with (peptide recovered from phage library selection on this NCI-60 cell line)” value is reported as “MDA-MB-231 Breast”. FHVAGGS was tested, and the “Cell Line with which the peptide (and its tripeptide motif) is associated” value (“Cell Line with which the peptide” below) was “SR Leukemia”. With FIAGGVG the “Cell Line the peptide is associated with (peptide recovered from phage library selection on this NCI-60 cell line)” value was “ACHN Renal”. For FISAGGW, the “Cell Line the peptide is associated with (peptide recovered from phage library selection on this NCI-60 cell line)” value was “MDA-MB-231 Breast”. In the case of FLHMRLS, the “Cell Line (NCI-60 cell line the peptide and its motif are associated with)” value is reported as “M14 Melanoma”. With FLLLSHR the “Cell Line the peptide is associated with (peptide recovered from phage library selection on this NCI-60 cell line)” value was “SN12C Renal”. In the case of FLLRSSF, the “Cell Line with which the peptide” value is reported as “SR Leukemia”. For FLLSRSA, the “Cell Line the peptide is associated with (peptide recovered from phage library selection on this NCI-60 cell line)” value was “NCI/ADR-RES Breast”. In the case of FLRGVEL, the “Cell Line (NCI-60 cell line the peptide and its motif are associated with)” value is reported as “SK-OV-3-3 Ovarian”. For FLRSLSL, the “Cell Line (NCI-60 cell line the peptide and its motif are associated with)” value was “SK-MEL-5 Melanoma”. In the case of FLRVGEL, the “Cell Line with which the peptide” value is reported as “Hop-62-Lung”. FMGAGFA was tested, and the “Cell Line with which the peptide” value was “HL-60-Leukemia”. With FMTYGSG the “Cell Line (NCI-60 cell line the peptide and its motif are associated with)” value was “OVCAR-4 Ovarian”. For FPARGED, the “Cell Line the peptide is associated with (peptide recovered from phage library selection on this NCI-60 cell line)” value was “A498 Renal”. FPAVSTE was tested, and the “Cell Line the peptide is associated with (peptide recovered from phage library selection on this NCI-60 cell line)” value was “T-47D Breast”. FPGSAGS was tested, and the “Cell Line the peptide is associated with (peptide recovered from phage library selection on this NCI-60 cell line)” value was “ACHN Renal”. FQRSGRL was tested, and the “Cell Line (NCI-60 cell line the peptide and its motif are associated with)” value was “SK-MEL-28 Melanoma”. For FRAASLL, the “Cell Line the peptide is associated with (peptide recovered from phage library selection on this NCI-60 cell line)” value was “MDA-MB-231 Breast”. FRAGVSH was tested, and the “Cell Line (NCI-60 cell line the peptide is associated with)” value was “HCT-116 Colon”. In the case of FRALGGL, the “Cell Line (NCI-60 cell line the peptide is associated with)” value is reported as “SNB-75 CNS”. With FRASLQY the “Cell Line with which the peptide” value was “Hop-62-Lung”. In the case of FRASSEV, the “Cell Line with which the peptide” value is reported as “Hop-62-Lung”. FRFVRGS was tested, and the “Cell Line the peptide is associated with (peptide recovered from phage library selection on this NCI-60 cell line)” value was “HS 578 T Breast”. For FRVSLGY, the “Cell Line the peptide is associated with (peptide recovered from phage library selection on this NCI-60 cell line)” value was “ACHN Renal”. With FSGDAVS the “Cell Line (NCI-60 cell line the peptide is associated with)” value was “HT-29 Colon”. FSGLVVA was tested, and the “Cell Line (NCI-60 cell line the peptide is associated with)” value was “HT-29 Colon”. With FSKMRAS the “Cell Line (NCI-60 cell line the peptide and its motif are associated with)” value was “DU-145 Prostate”. In the case of FSLGSSP, the “Cell Line the peptide is associated with (peptide recovered from phage library selection on this NCI-60 cell line)” value is reported as “UO31 Renal”. For FSLVSFV, the “Cell Line (NCI-60 cell line the peptide and its motif are associated with)” value was “SK-MEL-2 Melanoma”. For FSNARGY, the “Cell Line (NCI-60 cell line the peptide and its motif are associated with)” value was “DU-145 Prostate”. For FSPRGSV, the “Cell Line (NCI-60 cell line the peptide is associated with)” value was “SNB-19 CNS; also recorded: SF-539 CNS”. With FSSKRGV the “Cell Line with which the peptide” value was “RPMI-8226-Leukemia”. For FTLRVDK, the “Cell Line with which the peptide” value was “K-562-Leukemia”. For FTRGAAS, the “Cell Line (NCI-60 cell line the peptide and its motif are associated with)” value was “SK-MEL-2 Melanoma”. FTRGGLS was tested, and the “Cell Line (NCI-60 cell line the peptide is associated with)” value was “SNB-75 CNS”. FTSGVSW was tested, and the “Cell Line (NCI-60 cell line the peptide is associated with)” value was “COLO-205-Colon”. FVARLRV was tested, and the “Cell Line the peptide is associated with (peptide recovered from phage library selection on this NCI-60 cell line)” value was “TK-10 Renal”. FVDIAGS was tested, and the “Cell Line with which the peptide” value was “H23-Lung”. In the case of FVGRVGE, the “Cell Line the peptide is associated with (peptide recovered from phage library selection on this NCI-60 cell line)” value is reported as “A498 Renal”. With FVGSRGV the “Cell Line (NCI-60 cell line the peptide is associated with)” value was “LOX-IMVI Melanoma”. FVPRGSY was tested, and the “Cell Line (NCI-60 cell line the peptide and its motif are associated with)” value was “OVCAR-4 Ovarian”. For FWISRAS, the “Cell Line with which the peptide” value was “RPMI-8226-Leukemia”. With FWRGSVP the “Cell Line with which the peptide” value was “A549-Lung”. With GAAASGY the “Cell Line (NCI-60 cell line the peptide is associated with)” value was “SW620-Colon”. In the case of GAGGGVG, the “Cell Line the peptide is associated with (peptide recovered from phage library selection on this NCI-60 cell line)” value is reported as “MDA-MB-435-Breast”. With GAGGMAR the “Cell Line with which the peptide” value was “RPMI-8226-Leukemia”. In the case of GAGGVDV, the “Cell Line (NCI-60 cell line the peptide and its motif are associated with)” value is reported as 786-0 Renal. With GAGLGVS the “Cell Line (NCI-60 cell line the peptide and its motif are associated with)” value was “IGROV1 Ovarian”. With GAGLSTS the “Cell Line with which the peptide” value was “H322-Lung”. For GAGRFPH, the “Cell Line (NCI-60 cell line the peptide and its motif are associated with)” value was 786-0 Renal. With GAGRGDR the “Cell Line (NCI-60 cell line the peptide is associated with)” value was “SF-295 CNS”. With GAGRGTP the “Cell Line (NCI-60 cell line the peptide is associated with)” value was “HT-29 Colon”. For GAGRTVM, the “Cell Line with which the peptide” value was “SR Leukemia”. With GAGSFSS the “Cell Line (NCI-60 cell line the peptide and its motif are associated with)” value was “SK-MEL-2 Melanoma”. For GAGSGRT, the “Cell Line the peptide is associated with (peptide recovered from phage library selection on this NCI-60 cell line)” value was “HS 578 T Breast”. With GAGSISD the “Cell Line with which the peptide” value was “RPMI-8226-Leukemia”. With GAGSSVW the “Cell Line the peptide is associated with (peptide recovered from phage library selection on this NCI-60 cell line)” value was “CAIK-1 Renal”. With GAGTSEG the “Cell Line the peptide is associated with (peptide recovered from phage library selection on this NCI-60 cell line)” value was “TK-10 Renal”. For GAGVEYF, the “Cell Line the peptide is associated with (peptide recovered from phage library selection on this NCI-60 cell line)” value was “RXF393 Renal”. With GAHGLVR the “Cell Line with which the peptide” value was “SR Leukemia”. GAHGVRL was tested, and the “Cell Line the peptide is associated with (peptide recovered from phage library selection on this NCI-60 cell line)” value was “SN12C Renal”. GALRVPW was tested, and the “Cell Line (NCI-60 cell line the peptide is associated with)” value was “HCT-15 Colon”. With GARAVAP the “Cell Line the peptide is associated with (peptide recovered from phage library selection on this NCI-60 cell line)” value was “HS 578 T Breast”. With GASLTGD the “Cell Line with which the peptide” value was “H460-Lung”. GATGVSS was tested, and the “Cell Line (NCI-60 cell line the peptide and its motif are associated with)” value was “OVCAR-8 Ovarian”. With GAVDGSR the “Cell Line with which the peptide” value was “RPMI-8226-Leukemia”. With GAVLFRV the “Cell Line with which the peptide” value was “Hop-62-Lung”. GAVLTSC was tested, and the “Cell Line the peptide is associated with (peptide recovered from phage library selection on this NCI-60 cell line)” value was “BT-549 Breast”. For GAVNTPA, the “Cell Line (NCI-60 cell line the peptide and its motif are associated with)” value was “SK-MEL-2 Melanoma”. With GAVRARL the “Cell Line with which the peptide” value was “SR Leukemia”. GAVRSVM was tested, and the “Cell Line the peptide is associated with (peptide recovered from phage library selection on this NCI-60 cell line)” value was “TK-10 Renal”. With GAVSVLA the “Cell Line (NCI-60 cell line the peptide is associated with)” value was “SF-295 CNS”. For GAVTGYP, the “Cell Line (NCI-60 cell line the peptide is associated with)” value was “SF-268 CNS”. For GAVTSAD, the “Cell Line (NCI-60 cell line the peptide and its motif are associated with)” value was “SK-MEL-2 Melanoma”. GAVVKPI was tested, and the “Cell Line with which the peptide” value was “A549-Lung”. In the case of GAYGGLL, the “Cell Line (NCI-60 cell line the peptide is associated with)” value is reported as “SF-268 CNS”. In the case of GAYRLVS, the “Cell Line with which the peptide” value is reported as “CCRF-CEM Leukemia”. With GCDGGSA the “Cell Line with which the peptide” value was “H23-Lung”.
